Measured values published in PubChem BioAssay (NCI).
Several values for one entry are separate records, joined by “and”; a condition that tells them apart may be missing. Equal values may be shown once.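 Exposure lasted 48 hours, with cells grown in 96-well plates and compounds tested at five concentrations. Abbreviation: GI50, concentration required for 50% inhibition of growth. TGI: concentration producing complete growth inhibition.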

Tests used:
Assay in all cases: NCI anticancer screen, dose series, 48 h
[1] = system: MDA-MB-468 breast
[2] = system: 786-0 renal
[3] = system: A498 renal
[4] = system: A549 NSCLC
[5] = system: ACHN renal
[6] = system: BT-549 breast
[7] = system: CAKI-1 renal
[8] = system: CCRF-CEM leukemia
[9] = system: DU-145 prostate
[10] = system: EKVX NSCLC
[11] = system: HCC-2998 colon
[12] = system: HCT-116 colon
[13] = system: HCT-15 colon
[14] = system: HOP-62 NSCLC
[15] = system: HOP-92 NSCLC
[16] = system: HS 578T breast
[17] = system: IGROV1 ovarian
[18] = system: KM12 colon
[19] = system: LOX IMVI melanoma
[20] = system: M14 melanoma
[21] = system: MALME-3M melanoma
[22] = system: MDA-MB-231 breast
[23] = system: MDA-MB-435
[24] = system: MOLT-4 leukemia
[25] = system: NCI-H226 lung
[26] = system: NCI-H23 lung
[27] = system: NCI-H460 lung
[28] = system: NCI-H522 lung
[29] = system: NCI/ADR-RES ovarian
[30] = system: OVCAR-3 ovarian
[31] = system: OVCAR-4 ovarian
[32] = system: OVCAR-5 ovarian
[33] = system: OVCAR-8 ovarian
[34] = system: PC-3 prostate
[35] = system: RPMI-8226 leukemia
[36] = system: RXF 393 renal
[37] = system: SF-268 CNS
[38] = system: SF-295 CNS
[39] = system: SF-539 CNS
[40] = system: SK-MEL-2 melanoma
[41] = system: SK-MEL-28 melanoma
[42] = system: SK-MEL-5 melanoma
[43] = system: SK-OV-3 ovarian
[44] = system: SN12C renal
[45] = system: SNB-19 CNS
[46] = system: SNB-75 CNS
[47] = system: T-47D breast
[48] = system: TK-10 renal
[49] = system: U251 CNS
[50] = system: UACC-257 melanoma
[51] = system: UACC-62 melanoma
[52] = system: UO-31 renal

SMILES: C1CN(SSN2CCOCC2)CCO1
- GI50 [1]: > 100 µM
- TGI [1]: > 100 µM

SMILES: CN1CC[C@@H](c2c(O)cc(O)c3c(=O)cc(-c4ccccc4Cl)oc23)[C@@H]1CO
- GI50 [1]: 0.251 µM
- TGI [1]: 0.772 µM

SMILES: Cc1c2c(nn1C)CSCc1cc(n(C)n1)CSc1cc(c3ccccc3c1)OCCCc1c(C(=O)O)n(C)c3c-2c(Cl)ccc13
- GI50 [1]: 0.185 µM
- TGI [1]: 0.487 µM

SMILES: Cc1ccc(CNc2c3ccccc3nc3cc(NC(=O)CCN4CCCC4)ccc23)cc1
- GI50 [1]: 0.449 µM
- TGI [1]: 1.63 µM

SMILES: COc1ccc(C(=O)/C=C/c2c(Cl)c3c(c(OC)c2Cl)OCC(=O)N3)cc1
- GI50 [1]: 1.69 µM
- TGI [1]: 3.7 µM

SMILES: COc1ccc(/C=C2\CCCC3=C2NC(N)=NC3c2ccc(OC)c(OC)c2)cc1OC (stereo unspecified)
- GI50 [1]: 0.921 µM
- TGI [1]: 8.84 µM

SMILES: CCCCN(CCCC)c1ccc(C(=N)c2ccc(N(CCCC)CCCC)cc2)cc1
- GI50 [1]: 0.189 µM
- TGI [1]: 0.748 µM

SMILES: CCOc1cc2ncc(C#N)c(Nc3ccc(OCc4ccccn4)c(Cl)c3)c2cc1NC(=O)/C=C/CN(C)C
- GI50 [1]: < 0.01 µM and 0.00501 µM
- TGI [1]: 0.0415 µM and 0.0479 µM

SMILES: NC(=S)N/N=C/c1ncccc1N
- GI50 [1]: 1.89 µM
- TGI [1]: 10.2 µM

SMILES: O=[N+]([O-])c1cccc([As]=[As]c2cccc([N+](=O)[O-])c2)c1 (stereo unspecified)
- GI50 [1]: 0.0529 µM
- TGI [1]: 0.194 µM

SMILES: Nc1nc(Nc2ccc(C3CCC(N4CCOCC4)CC3)cc2)nn1-c1ccccn1 (stereo unspecified)
- GI50 [1]: 11.2 µM
- TGI [1]: > 100 µM

SMILES: CC1(C)[C@@H](OC(N)=O)[C@H]2O[C@H]2[C@]2(CO)[C@H]3CC[C@]4(C)[C@@H](c5ccc(=O)oc5)[C@@H](Cl)C[C@]4(O)C3=CC[C@@H]12
- GI50 [1]: 0.021 µM
- TGI [1]: 0.0965 µM

SMILES: CS(=O)(=O)c1nccc(-c2c(-c3ccc(F)c(OCc4ccc(F)cc4)c3)nc3sccn23)n1
- GI50 [1]: 2.43 µM
- TGI [1]: 7.03 µM

SMILES: COc1ccc(C(=O)c2cc3c(N)c(C(=O)Nc4cccc5ccccc45)sc3nc2C)cc1
- GI50 [1]: 0.22 µM
- TGI [1]: > 50 µM

SMILES: Nc1[nH]nc2nc(-c3cccs3)cc(C(F)(F)F)c12
- GI50 [1]: > 17.1 µM
- TGI [1]: > 25 µM

SMILES: O=C(Nc1ccc(Cl)c(Cl)c1)O/N=C\c1c(Cl)ccc([N+](=O)[O-])c1Cl
- GI50 [1]: 1.08 µM
- TGI [1]: 2.72 µM

SMILES: Cc1cc(N2CCCC2)nc(N(CCNc2ccnc3cc(Cl)ccc23)Cc2ccco2)n1
- GI50 [1]: 1.96 µM
- TGI [1]: 6.67 µM

SMILES: CCN(CC)Cc1ccc(Nc2nccc(-c3cnn4ncccc34)n2)cc1
- GI50 [1]: 0.035 µM
- TGI [1]: 0.0975 µM

SMILES: CCOc1ccccc1N=Nc1c(C)[nH]n(-c2nc(-c3ccccc3)cs2)c1=O
- GI50 [1]: 8.49 µM
- TGI [1]: > 100 µM

SMILES: O=C(Nc1cccc(NC(=O)Nc2cc(C(F)(F)F)ccc2Cl)c1)Nc1cc(C(F)(F)F)ccc1Cl
- GI50 [1]: 1.1 µM
- TGI [1]: 7.24 µM

SMILES: O=C(COc1ccc(/C=C2\Oc3ccccc3C2=O)cc1)Nc1nc2c(s1)CCCC2
- GI50 [1]: 0.309 µM
- TGI [1]: 1.86 µM

SMILES: COC(=O)c1cc2ccc(OC(C)=O)c(OC(C)=O)c2cn1
- GI50 [1]: 16.1 µM
- TGI [1]: 33.5 µM

SMILES: CN(C)c1ccc2nc3ccc(=[N+](C)C)cc-3sc2c1
- GI50 [1]: 0.233 µM and 0.469 µM
- TGI [1]: 1.01 µM and 3.63 µM

SMILES: Cn1cc(C2=C(c3cccc(OCC(O)CO)c3)C(=O)NC2=O)c2ccccc21 (stereo unspecified)
- GI50 [1]: > 25 µM
- TGI [1]: > 25 µM

SMILES: Cc1ccc(S(=O)(=O)Nc2cccc3[nH]c(C(F)(F)F)nc23)cc1
- GI50 [1]: 0.536 µM
- TGI [1]: 26.1 µM

SMILES: O=c1nc2oc3ccc4ccccc4c3cc-2s1
- GI50 [1]: 0.551 µM
- TGI [1]: 19.5 µM

SMILES: O=C(Nc1ccc(Cl)cc1)Nc1ccc(Nc2nncc3ccccc23)cc1
- GI50 [1]: 2.57 µM
- TGI [1]: 9.47 µM

SMILES: COc1cccc(-n2ncc3c(N/N=C/c4ccncc4)ncnc32)c1
- GI50 [1]: 5.15 µM
- TGI [1]: > 25 µM

SMILES: CN(C)c1ccc2c(c1)OC(N)=C(C#N)C2c1ccc2c(c1)CCO2 (stereo unspecified)
- GI50 [1]: 0.117 µM
- TGI [1]: 47.7 µM

SMILES: CC(C)(O)CC(=O)NCCn1ccc2ncnc(Nc3ccc(Oc4cccc(C(F)(F)F)c4)c(Cl)c3)c21
- GI50 [1]: 0.272 µM
- TGI [1]: 4.06 µM

SMILES: COc1ccc2[nH]cc(-c3cc(N)n4nc(-c5c[nH]c6ccccc56)cc4n3)c2c1
- GI50 [2]: 1.57 µM
- TGI [2]: 3 µM
- GI50 [3]: 11.4 µM
- TGI [3]: 24.4 µM
- GI50 [4]: 3.14 µM
- TGI [4]: 13.9 µM
- GI50 [5]: 2.62 µM
- TGI [5]: 6.99 µM
- GI50 [6]: 13.3 µM
- TGI [6]: 26.1 µM
- GI50 [7]: 2.32 µM
- TGI [7]: 6.44 µM
- GI50 [8]: 2.6 µM
- TGI [8]: 6.46 µM
- GI50 [9]: 5.19 µM
- TGI [9]: 19.3 µM
- GI50 [10]: 3.93 µM
- TGI [10]: 15.9 µM
- GI50 [11]: 1.77 µM
- TGI [11]: 3.38 µM
- GI50 [12]: 1.75 µM
- TGI [12]: 3.12 µM
- GI50 [13]: 1.66 µM
- TGI [13]: 3.33 µM
- GI50 [14]: 3.14 µM
- TGI [14]: 7.88 µM
- GI50 [15]: 3.04 µM
- TGI [15]: 11.9 µM
- GI50 [16]: 6.69 µM
- TGI [16]: > 100 µM
- GI50 [17]: 4.52 µM
- TGI [17]: 17 µM
- GI50 [18]: 2.21 µM
- TGI [18]: 5.01 µM
- GI50 [19]: 1.64 µM
- TGI [19]: 3.01 µM
- GI50 [20]: 1.79 µM
- TGI [20]: 3.32 µM
- GI50 [21]: 1.7 µM
- TGI [21]: 3.07 µM
- GI50 [22]: 1.91 µM
- TGI [22]: 3.58 µM
- GI50 [23]: 2.04 µM
- TGI [23]: 4.11 µM
- GI50 [1]: 1.66 µM
- TGI [1]: 3.12 µM
- GI50 [24]: 2.25 µM
- TGI [24]: 6.05 µM
- GI50 [25]: 11.5 µM
- TGI [25]: 28 µM
- GI50 [26]: 3.15 µM
- TGI [26]: 10.2 µM
- GI50 [27]: 2.74 µM
- TGI [27]: 7.59 µM
- GI50 [28]: 1.64 µM
- TGI [28]: 3.51 µM
- GI50 [29]: 5.84 µM
- TGI [29]: 24 µM
- GI50 [30]: 3.27 µM
- TGI [30]: 16.6 µM
- GI50 [31]: 5.06 µM
- TGI [31]: 17.8 µM
- GI50 [32]: 3.86 µM
- TGI [32]: 13.4 µM
- GI50 [33]: 4.12 µM
- TGI [33]: 33.3 µM
- GI50 [34]: 3.33 µM
- TGI [34]: 14.8 µM
- GI50 [35]: 2.37 µM
- TGI [35]: 5.51 µM
- GI50 [36]: 1.38 µM
- TGI [36]: 3.48 µM
- GI50 [37]: 9.09 µM
- TGI [37]: 37.3 µM
- GI50 [38]: 1.83 µM
- TGI [38]: 3.55 µM
- GI50 [39]: 1.68 µM
- TGI [39]: 3.05 µM
- GI50 [40]: 1.83 µM
- TGI [40]: 3.8 µM
- GI50 [41]: 1.72 µM
- TGI [41]: 3.1 µM
- GI50 [42]: 1.7 µM
- TGI [42]: 3.07 µM
- GI50 [43]: 15 µM
- TGI [43]: 33.1 µM
- GI50 [44]: 10.1 µM
- TGI [44]: 22.8 µM
- GI50 [45]: 4.25 µM
- TGI [45]: 14.8 µM
- GI50 [46]: 11.2 µM
- TGI [46]: 29.2 µM
- GI50 [47]: 3.05 µM
- TGI [47]: 26.3 µM
- GI50 [48]: 3.53 µM
- TGI [48]: 12.1 µM
- GI50 [49]: 2.08 µM
- TGI [49]: 4.67 µM
- GI50 [50]: 1.73 µM
- TGI [50]: 3.21 µM
- GI50 [51]: 1.73 µM
- TGI [51]: 3.16 µM
- GI50 [52]: 1.86 µM
- TGI [52]: 4.65 µM

SMILES: O=C(/C=C/c1ccc([N+](=O)[O-])cc1)c1ccc2c3c(cccc13)CC2
- GI50 [1]: 2.98 µM
- TGI [1]: 19.3 µM

SMILES: COc1cc(C2c3cc4c(cc3OC(NNC(N)=O)C2C)OCO4)cc(OC)c1O (stereo unspecified)
- GI50 [1]: 7.5 µM
- TGI [1]: > 100 µM

SMILES: COc1cc(C(=O)NC2CCN(C)CC2)c(F)cc1Nc1ncc2c(n1)N(C1CCCC1)CC(F)(F)C(=O)N2C
- GI50 [1]: < 0.01 µM
- TGI [1]: 0.633 µM

SMILES: CC[C@H](CO)Nc1nc(NCc2ccccc2)n2ncc(C(C)C)c2n1
- GI50 [1]: 1.88 µM
- TGI [1]: 5.19 µM

SMILES: O=C(NC[C@H](O)CO)c1ccncc1Nc1ccc(I)cc1F
- GI50 [1]: > 10 µM and 12.1 µM
- TGI [1]: > 66 µM

SMILES: NC(=O)c1c(NC(=O)c2ccc3c(c2)OCO3)sc2c1CCC(=O)C2
- GI50 [1]: 1.96 µM
- TGI [1]: 4.43 µM
